Results as given in US5840835A, “Inhibitors of peptide binding to MHC class II proteins” (Merck & Co., Inc., priority 1996, dated 1998).
Read-outs that look alike come from different tables or passages of the source.

Target: T1, DR1Dw1 (Homo sapiens, UniProt P01903+P01911, A100R/D57E/F55L/F60I/F76Y/I96L/L162R/M171V/P40L/Q125E/R42F/V115G/Y59C)
T1 construct: these are Drosophila transmembrane DR; made in house
Experiment: Inhibition of biotinylated RMBP 90-102 peptide binding to MHC class II DR1 (europium-streptavidin capture assay)
Procedure: In studies optimizing the assay it was determined that only between 5 to 10% of the DR molecules are capable of binding added peptide. Therefore, the effective concentration of DR1Dw1 and DR4Dw4 was approximately 0.125 and 1.0 nM, respectively. […] The DR-peptide complexes (50 μL) are transferred to wells of a 96-well EIA plate precoated with LB3.1, the monoclonal antibody which recognizes the DR alleles of MHC Class II, and blocked with PBS with fetal calf serum (FCS). An additional 50 μL of 50 mM Tris, pH 7.0, containing 0.75% octyl glucoside is added to each well and the mixture incubated overnight at 4° C. Excess peptide is removed by washing with PBS containing 0.05% Tween 20 (Polyoxyethylene sorbitan monolaurate) and 0.01% NaN3. Europium-labeled streptavidin (Wallac Inc.) is added and incubated overnight. After washing, complexes are measured by the addition of Enhance™ buffer, the tradename for 0.1M acetate phthalate buffer, pH 3.2, containing 0.1% Triton X-100, tradename for polyoxyethylene ethers and other surface active compounds of Union Carbide Chemicals and Plastics Co., Inc. (particularly, a non-ionic surfactant for recovery of membrane components under non-denaturing conditions) 15 μM 2-naphthoyltrifluoroacetone, and 50 μM tri-N-octylphosphine oxide, which buffer releases the chelated europium from streptavidin and forms a highly fluorescent micellar solution. The resultant fluorescence is measured using a fluorescent plate reader (e.g., DELPHIA, Wallac, Inc.). The data are analyzed using a four-parameter logistical curve […] program (e.g., SigmaPlot) that calculates the concentration of biotinylated peptide giving a half-maximal signal (ED50).
The inhibition assay format is identical to the procedure described above with the exception that the unlabeled antagonist is serially diluted and incubated with constant concentrations of biotinylated RMBP 90-102 (0.3 nM for DR1Dw1 or 0.9 nM for DR4Dw4) and the MHC class II proteins. The concentration of unlabeled compound that prevents 50% of the labeled peptide from binding is the IC50 value. The concentration of the biotinylated RMBP 90-102 in each assay is experimentally determined to be […] one-sixth of its measured ED50 to assure the inhibition was primarily measuring the binding characteristics of the competitor.
In particular, a protocol for carrying out the inhibition assay is given below.
Preparation of antibody plate
Add 115 μL of 5 μg/mL LB3.1 in 50 mM Tris HCl pH 9.6/azide to each well of a Costar EIA plate. Incubate the plate overnight at 4° C.
Wash the plate 4 times with water/0.05% Tween-20/azide. Add 200 μL of PBS/5% FCS/azide for 1 hour at 4° C. to block the plate. The plate may be held at this point for later use or used immediately.
Flip out the block. It is not necessary to wash the plate. At 50 μL of load buffer (50 mM Tris HCl, pH 8.0 0.75% octylglucoside). Add to this volume 50 μL of the reaction mix from day 2, step 3 below.
Preparation of reaction mixture
(1) Add the following to a polypropylene round bottom 96-well plate such as a Costar #3794:
(A) Diluent (Ca Mg free PBS adjusted to pH 6.5 with 0.1M KH2 PO4 /0.75% octylglucoside/azide)0.81 μL
(B) Competitor at 16.6 times the final concentration in diluent or diluent alone 0.9 μL
(C) Biotinylated rat myelin basic protein (BRMBP) 90-102; 1.5 nM for DR1 or 4.5 nM for DR4 (These are 5×stocks of final concentrations of 0.3 nM/DR1 or 0.9 nM/DR4) 30 μL
(D) 6.25 nM DR1Dw1 or 50 nM DR4Dw4 (these are Drosophila transmembrane DR) (This is a 5×stock of the final concentration of 1.25 or 10 nM.) 30 μL Add the DR last and mix well at this time 150 μL
(2) Incubate at 37° C. for 20 min and 5 hours.
(3) Add 50 μL of this reaction mixture to one well of the blocked antibody plate from day 2 above.
(4) Incubate overnight at 4° C. to capture the DR-peptide complexes.
(5) Wash 4× with H2 O/0.05% Tween-20/azide […]

[1] = 20 min incubation at 37° C., 0.3 nM biotinylated RMBP 90-102, 1.25 nM DR1Dw1, pH 6.5, read-out: IC50 /nM @ 20 min
[2] = 5 hours incubation at 37° C., 0.3 nM biotinylated RMBP 90-102, 1.25 nM DR1Dw1, pH 6.5, read-out: IC50 /nM @ 5 Hrs

IC50 [1] [nM]	IC50 [2] [nM]	Substance
37	194	EtOCO--(L)Cha(L)Lys Nva.psi.[E,CH=CH]Nle-NH2 TFA [Example 4]
1050	5600	α-(3-CYCLOHEXYLPROPYL)-(L)(ε-NICOTINOYL)Lys Nva.psi.[(E)CH=CH]Leu-NH2 TFA SALT [Example 8]
409	2280	N-(3-CYCLOHEXYLPROPYL)-(L)(ε-NICOTINOYL)Lys Nva.psi.[E,CH=CH]Nle-NH2 TFA SALT [Example 7]
21	142	EtOCO-(L)Cha (L)Lys Nva.psi.[(E,CH=CH]Leu-NH2 TFA SALT [Example 5]
616		EtOCO-(L)Cha (L)Lys Nva.psi.[trans,cPr]Nle-NH2 TFA SALT [Example 6]
2520	16600	α-(3-CYCLOHEXYLPROPYL)-(L)(3-PYRIDYL)Ala Nva.psi.[(E)CH=CH]Leu-NH2 TFA SALT [Example 9]
